Results published in US20030055007A1, “Antimicrobial agents” (priority 2001, published 2003).
In brackets after ≈: the same amount, converted by molar mass. Like-named read-outs stand apart in the source and are kept apart here.

Assays:
[1] = tested on: AIDS virus (HIV-1, HIV-2); experiment: Complete inhibitory activity against AIDS virus, MT-4 cells, 12-well microplate, 3- and 6-day culture; type: cell-based; details: for lowest sample concentration (circle-marked well) at which AIDS virus growth was inhibited completely (100%): MT-4 cells, 2-fold dilutions from 1000 μg/ml
MT-4 cells [2] = tested on: MT-4 cells
MT-4 cells [3] = experiment: Cell damage caused by the sample in the AIDS virus microplate test; details: for cell damage / cytotoxicity (in words): AIDS virus test
[4] = tested on: Influenza virus A/Hokkaidou/1/96 (H1N1); experiment: organism not typed; type: cell-based; details: for MIC: read-out: Minimum inhibitory concentration (MIC)
[5] = tested on: Influenza virus A/Hokkaidou/1/97 (H3N2); experiment: organism not typed; type: cell-based; details: for MIC: read-out: Minimum inhibitory concentration (MIC)
[6] = tested on: Influenza virus B/Hokkaidou/1/97; experiment: microbe, parasite or virus in culture; type: cell-based; details: for MIC: unidentified influenza virus, read-out: Minimum inhibitory concentration (MIC)
[7] = oral; cited from earlier work
[8] = tested on: influenza virus (H1N1, H3N2, Type B); type: cell-based
E. coli O157 = type: cell-based; details: 30° C., 17 hours, 1:40 = 2 mg/ml, <40-fold = no complete inhibition at 1:40
K. pneumoniae = experiment: Antibacterial activity test (2), dilution on agar culture medium; type: cell-based; details: 30° C., 17 hours, 1:40 = 2 mg/ml, <40-fold = no complete inhibition at 1:40
S. Enteritidis = experiment: as above; type: cell-based; details: 30° C., 17 hours, 1:40 = 2 mg/ml, <40-fold = no complete inhibition at 1:40
P. aerginos = experiment: as above; type: cell-based; details: 30° C., 17 hours, 1:40 = 2 mg/ml, <40-fold = no complete inhibition at 1:40
S. aureus = experiment: as above; type: cell-based; details: 30° C., 17 hours, 1:40 = 2 mg/ml, <40-fold = no complete inhibition at 1:40
Method: Aqueous solutions of each specimen (powders) at a concentration of 8% was diluted 1:40 as the specimen stock solution for MIC measurement. The stock solution diluted at a graduation ratio of 1:40 to 1:400 and the stock solution were added to the agar culture medium on which 6 test […] were inoculated, and incubated at 30° C. for 17 hours. Growth inhibition bands were examined on the agar culture medium. The specimen stock solution was prepared by diluting 25 ml of 8% solution with 1000 cc of distilled water(1:40 dilution), which is converted into the amount per 2 mg/ml by solid content.
However, the remaining samples that were indicative of “<40-fold (lower than the 1:40 dilution)” were proven to have a certain degree of inhibitory effects. They are expected to show the complete inhibitory effects against the bacterial growth, by increasing the concentration level. As a consequence, the samples, 5, 6, 11-14 were recognized to have sufficient useful antibacterial activity.

B. subtilis = experiment: as above; type: cell-based; details: 30° C., 17 hours, 1:40 = 2 mg/ml, <40-fold = no complete inhibition at 1:40
influenza virus = details: in vivo, po
[9] = H1N1, liquid samples, stock 10 μl/ml guaiacol, 2 μl/ml 2,6-dimethoxyphenol
[10] = H1N1, stock 10 mg/ml, read when virus multiplied to 100 TCID (3-4 days)
[11] = H3N2, stock 10 mg/ml, read when virus multiplied to 100 TCID (3-4 days)

COc1cc(C(O)C(CO)Oc2c(OC)cccc2OC)cc(OC)c1O (stereo not drawn) [SOS, syringylglycerol-β-syringyl ether, reference compound]
viral (inhibitory) activity against AIDS virus ([1]; 3rd day of culture): 15.6 μl/ml
cell damage (MT-4 cells [2]): 31.3 μl/ml

COc1cc(S(=O)(=O)[O-])ccc1O.COc1cc(S(=O)(=O)[O-])ccc1O.O.[K+].[K+] [guaiacol-4-sulfonate potassium salt 0.5-hydrate, reference compound]
anti-AIDS virus activity (in words) ([1]; cell-level test): not to possess effective anti-AIDS virus activity
cell damage / cytotoxicity (in words) (MT-4 cells [3]): caused cell damage

COc1ccccc1O [sample 1, Guaiacol]
lowest sample concentration (circle-marked well) at which AIDS virus growth was inhibited completely (100%) ([1]; 3-day culture): ◯ (31.3) μg/ml
lowest sample concentration (circle-marked well) at which AIDS virus growth was inhibited completely (100%) ([1]; 3-day culture, listed as guaiacol): 31.3 µg/mL
lowest sample concentration (circle-marked well) at which AIDS virus growth was inhibited completely (100%) ([1]; 6-day culture): ◯ (125) μg/ml
lowest sample concentration (circle-marked well) at which AIDS virus growth was inhibited completely (100%) ([1]; 6-day culture, listed as guaiacol): 125 µg/mL
Minimum inhibitory concentration (MIC) [4, 9]: 3.8 μl/ml
Minimum inhibitory concentration (MIC) ([5]; H3N2, liquid samples, stock 10 μl/ml guaiacol, 2 μl/ml 2,6-dimethoxyphenol): 1.9 μl/ml
Minimum inhibitory concentration (MIC) ([6]; Type B, liquid samples, stock 10 μl/ml guaiacol, 2 μl/ml 2,6-dimethoxyphenol): 3.8 μl/ml
toxicity level in a human (ORL-HMN) [7]: 43 mg/kg
concentration up to which cell damage was observed (MT-4 cells [3]; 3-day incubation): 250 µg/mL
concentration up to which cell damage was observed (MT-4 cells [3]; 6-day incubation): 250 µg/mL

COc1cccc(OC)c1O [sample 3, 2,6-dimethoxyphenol]
lowest sample concentration (circle-marked well) at which AIDS virus growth was inhibited completely (100%) ([1]; 3-day culture): ◯ (31.3) μg/ml
lowest sample concentration (circle-marked well) at which AIDS virus growth was inhibited completely (100%) ([1]; 6-day culture): ◯ (31.3) μg/ml
Minimum inhibitory concentration (MIC) [4, 9]: > 1.0 μl/ml
effect against influenza virus (in words) [8]: not effective

COc1cc(O)cc(OC)c1 [sample 4, 3,5-dimethoxyphenol]
lowest sample concentration (circle-marked well) at which AIDS virus growth was inhibited completely (100%) ([1]; 3-day culture): ◯ (125) μg/ml
lowest sample concentration (circle-marked well) at which AIDS virus growth was inhibited completely (100%) ([1]; 6-day culture): ◯ (125) μg/ml
lowest sample concentration (circle-marked well) at which AIDS virus growth was inhibited completely (100%) ([1]; 6-day culture, listed as 3,5-dimethoxyphenol): 125 µg/mL
MIC [4, 10]: 5000 µg/mL (≈ 32.4 mM)
MIC [5, 11]: 1900 µg/mL (≈ 12.3 mM)
MIC ([6]; Type B, stock 10 mg/ml, read when virus multiplied to 100 TCID (3-4 days)): 3800 µg/mL (≈ 24.6 mM)
well up to which cell damage was observed (MT-4 cells [3]; 6-day incubation, well number): 3 (250)
cell damage when 3,4-dimethoxyphenol was added to the sample (MT-4 cells [3]; ratio of 1:1, anti-viral effect not reduced): only in the first well

COc1cc(C(O)C(CO)Oc2ccccc2OC)ccc1OCc1ccccc1 (stereo not drawn) [sample 12, 4-benzyloxyguaiacylglycerol-β-guaiacylether]
viral (inhibitory) activity against AIDS virus ([1]; 6th day of culture): 125 μl/ml
Minimum inhibitory concentration (MIC) [4, 10]: 8.0 mg/mL (≈ 19.5 mM)
Minimum inhibitory concentration (MIC) [5, 11]: 2.5 mg/mL (≈ 6.09 mM)
Minimum inhibitory concentration (MIC) [6]: 2.5 mg/mL (≈ 6.09 mM)
dilution of 8% solution giving complete growth inhibition (E. coli O157): <40-fold
dilution of 8% solution giving complete growth inhibition (K. pneumoniae): <40-fold
dilution of 8% solution giving complete growth inhibition (S. Enteritidis): <40-fold
dilution of 8% solution giving complete growth inhibition (P. aerginos): <40-fold
dilution of 8% solution giving complete growth inhibition (S. aureus): <40-fold
dilution of 8% solution giving complete growth inhibition (B. subtilis): <40-fold

COc1cc(C=O)cc(OC)c1O [sample 13, Syringaldehyde]
lowest sample concentration (circle-marked well) at which AIDS virus growth was inhibited completely (100%) ([1]; 6-day culture): 3.91 µg/mL
MIC [4]: 3800 µg/mL (≈ 20.9 mM)
MIC [5]: 1900 µg/mL (≈ 10.4 mM)
MIC [6]: 3800 µg/mL (≈ 20.9 mM)
dilution of 8% solution giving complete growth inhibition (E. coli O157): <40-fold
dilution of 8% solution giving complete growth inhibition (K. pneumoniae): <40-fold
dilution of 8% solution giving complete growth inhibition (S. Enteritidis): <40 fold
dilution of 8% solution giving complete growth inhibition (P. aerginos): <40-fold
dilution of 8% solution giving complete growth inhibition (S. aureus): <40-fold
dilution of 8% solution giving complete growth inhibition (B. subtilis): <40-fold
cell damage / cytotoxicity (in words) (MT-4 cells [3]): severe cell damage

Lignosulfonic acid sodium salt [sample 5]
cell damage (MDCK cells): not seen

Lignosulfonic acid sodium salt acetate [sample 6]
cell damage (MDCK cells): not seen
side effects (influenza virus): not seen
